We go through three molecules from paper PMC11825364, “Development of supramolecular anticoagulants with on-demand reversibility” (Nature Biotechnology, 2024).

One test deals with T1, human α-thrombin (Homo sapiens, UniProt P00734).
T1 construct: human α-thrombin (Haematologic Technologies, HCT0020); purchased Haematologic Technologies HCT0020
Put plainly: Michaelis Menten determination of KM of the fluorogenic substrate. Format: biochemical. The note with it: without inhibitor, variation of [substrate]; R2 0.98. The protocol:
Inhibition assays were performed using 0.2 nM enzyme, 20 μM substrate and increasing concentrations of inhibitor. The concentration of each inhibitor variant was determined using the absorbance of the PNA at 260 nm, as measured by NanoDrop. All reactions were performed at 37 °C in 50 mM Tris-HCl (pH 8.0), 50 mM NaCl and 1 mg ml^–1 bovine serum albumin in black 96-well microtiter plates (Thermo Fisher Scientific, 267342). Reaction progress was monitored by excitation at 339 nm and emission at 439 nm using a SpectraMax or Tecan Spark Plate Reader. Dose–response curves were used to determine the half-maximal inhibitory concentrations (IC50) using Prism 8.0 (GraphPad Software). For each inhibitor, the reactions were performed in triplicate, together with control reactions in the absence of enzyme. The initial velocity was calculated from the slope of the first 10 min of the assay. The curves were normalized to the well without inhibitor, where the initial velocity was set to 100% activity.
MALDI-TOF; m/z found: 1202.95.
5. Thrombin Inhibition Assay
Supplementary Figure 2: Thrombin Fluorogenic Assay
The assay was performed as described in the Online Methods section.
To convert IC50 values to Ki values, KM was determined: The assay described above was performed
without inhibitor but with variation of [substrate]. The Michaelis Menten plot was obtained, and KM […]

Test [1] has as its target Biotin-PNA (8-mer) ACAACTGC
As to the kind of experiment: SPR of PNA hybridization. Format: binding. The note with it: 25 °C. On the procedure:
SPR experiments were performed on a Biacore T200 instrument (GE Healthcare) at 25 °C in PBS-P+ buffer (10× stock; Cytiva Life Sciences, 28995084). Biotin-PNA (8-mer) was immobilized on a Streptavidin Series S sensor chip (Cytiva Life Sciences, 29104992). Before immobilization, the two channels were conditioned with 1 M NaCl in 50 mM NaOH. After stabilization, the compound (solution in PBS-P+) was flowed over one of the flow cells of the sensor chip at a concentration of 50 nM at a flow rate of 10 μl min^−1 with a response unit target of 500. Biotin-PNA (8-mer) reached a response unit value of 513.7. The system (not including the flow cells) was washed with 50% isopropanol in 1 M NaCl and 50 mM NaOH after each ligand injection. Kinetic measurements consisted of injections (association, 400 s; dissociation, 450 s; flow rate, 30 μl min^−1) of decreasing concentrations of PNA (4-, 6- and 8-mer; twofold cascade dilutions from the starting concentration). The chip was regenerated between cycles by one injection of regeneration solution (50 mM NaOH) for 10 s at a flow rate of 20 μl min^−1, followed by a 10-s stabilization period. Binding was measured as resonance units over time after blank subtraction, and the data were interpreted using Biacore T200 software (version 3.2). All measurements were performed in duplicate. The KD values were calculated based on steady-state affinity (1:1 binding).

The next test concerns C57BL/6J mice. As to the kind of experiment: Needle injury thrombosis model. The test is classed as in vivo, mouse. The note with it: A1–E1 5 mg per kg i.v. bolus twice 30 min apart, argatroban 2 mg per kg bolus + 12 mg per kg infusion over 60 min.

Protocol for C57BL/6J mice: For intravital mouse studies, male mice aged between 5 and 8 weeks old (15–20 g) were used.
A clinical preparation of argatroban (Argatra/Exembol) was purchased from Mitsubishi Tanabe Pharma (Germany) and prepared in sterile saline with 25% (vol/vol) propylene glycol. Synthesized PNA inhibitors and PNA inhibitors + antidote solutions were prepared in sterile saline at a concentration of 2 mg ml^–1. C57BL/6J male mice (15–25 g) were anesthetized with ketamine (150 mg per kg (body weight)) and xylazine (15 mg per kg (body weight)), supplemented with oxygen and subjected to intravital needle injury, as previously described[42]. […] Following each injury, platelet thrombus formation and fibrin generation were monitored over a 15-min period using a confocal intravital microscopy platform (Nikon A1R-Si with an Apo LWD, ×40/1.15-NA water immersion objective; sequential excitation: 488-, 561- and 638-nm lasers; emission: 525/50-, 595/50- and 700/75-nm filters) and NIS Elements Advanced Research acquisition software. […]
The signal obtained from DyLight 649-conjugated anti-GP1bβ for each xyz stack in a time series was thresholded to create a mask. The total signal (arbitrary units) from Alexa Fluor 546-conjugated anti-fibrin within this mask (that is, the fibrin signal within the thrombus) for each time point was then quantified using NIS Elements software (Nikon). […]

For the molecule “phe-Pro-Arg-Coumarin [(S)-1-(D-phenylalanyl)-N-((S)-5-guanidino-1-((4-methyl-2-oxo-2H-chromen-7-yl)amino)-1-oxopentan-2-yl)pyrrolidine-2-carboxamide, substrate of the thrombin assay]”, on human α-thrombin, the Km (usually the substrate concentration at which the rate is half of its maximum) was found to be 2.42 µM and the Vmax is listed as 435.8.
Consider CAGT, for which binding in test [1] was put at a Kd of 4.14 µM.
Regarding `CC1CNc2c(cccc2S(=O)(=O)N[C@@H](CCCNC(=N)N)C(=O)N2CC[C@@H](C)C[C@@H]2C(=O)O)C1` (stereo partly shown) [argatroban], the “fibrin formation and thrombus size” value in the test with C57BL/6J mice was “significant decreases in fibrin formation and thrombus size”.
